The test system of this series is human maximum recommended daily dose, FDA database. Briefly: DSSTox (FDAMDD) FDA Maximum (Recommended) Daily Dose Database. Particulars: active compounds read low. Summed up: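 MRDD values come from clinical trials with daily oral dosing, usually for 3–12 months, for the average adult, in mg/day converted to mg/kg-bw/day assuming 60 kg. Antineoplastic mg/m2 doses are divided by 37. Activity score maps log10(1/MRDD mmol) onto 1–100.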

[1] abbreviates: TherapeuticCategory: antibacterial.
Where [2] appears, read: TherapeuticCategory: sedative, hypnotic.

On to `CC[N+](CC)(CCNC(=O)C(=O)NCC[N+](CC)(CC)Cc1ccccc1Cl)Cc1ccccc1Cl`, for which, for the setting “TherapeuticCategory: cholinesterase inhibitor”, the maximum recommended daily dose (mmol/kg-bw/day) was 0.00274.

On to `CCCCNC(=O)NS(=O)(=O)c1ccc(C)cc1`, for which the maximum recommended daily dose (mmol/kg-bw/day) (TherapeuticCategory: hypoglycemic agent) was 0.123.

Take `C[C@]12C=CC(=O)C=C1CC[C@@H]1[C@@H]2CC[C@@]2(C)[C@H]1CC[C@]2(C)O`: the maximum recommended daily dose (mmol/kg-bw/day) (TherapeuticCategory: androgen) is 0.000222.

`COc1cc([C@@H]2Oc3cc([C@H]4Oc5cc(O)cc(O)c5C(=O)[C@@H]4O)ccc3O[C@H]2CO)ccc1O`: the maximum recommended daily dose (mmol/kg-bw/day) (TherapeuticCategory: treatment of liver disfunction) is 0.0145.

As to `NC[C@H]1O[C@H](O[C@H]2[C@H](O)[C@@H](O[C@H]3O[C@H](CO)[C@@H](O)[C@H](N)[C@H]3O)[C@H](N)C[C@@H]2N)[C@H](O)[C@@H](O)[C@@H]1O`, under setting [1], the maximum recommended daily dose (mmol/kg-bw/day) was 0.031.

For `Nc1ccc(N=Nc2ccccc2)c(N)n1`, the maximum recommended daily dose (mmol/kg-bw/day) (TherapeuticCategory: analgesic) is 0.0313.

Turning to `NCc1ccccc1CC(=O)N[C@@H]1C(=O)N2C(C(=O)O)=C(CSc3nnnn3CC(=O)O)CS[C@H]12`, the maximum recommended daily dose (mmol/kg-bw/day) under setting [1] is 0.0641.

For `CNC[C@H](O)c1ccc(O)c(O)c1`, the maximum recommended daily dose (mmol/kg-bw/day) (TherapeuticCategory: adrenergic, bronchodilator, mydriatic, antiglaucoma) is 9.12e-05.

In the case of `CN[C@@H]1[C@H](O[C@H]2[C@H](O[C@H]3[C@H](O)[C@@H](O)[C@H](N=C(N)N)[C@@H](O)[C@@H]3N=C(N)N)O[C@@H](C)[C@]2(O)CO)O[C@@H](CO)[C@H](O)[C@H]1O`, the maximum recommended daily dose (mmol/kg-bw/day) under setting [1] is 0.0286.

`CC(=O)[C@@]1(O)CC[C@H]2[C@@H]3C=C(Cl)C4=CC(=O)[C@@H]5C[C@@H]5[C@]4(C)[C@H]3CC[C@@]21C`: the maximum recommended daily dose (mmol/kg-bw/day) (TherapeuticCategory: antiandrogen) is 0.0133.

As to `COc1ccc(NS(=O)(=O)c2ccc(N)cc2)nn1`, the maximum recommended daily dose (mmol/kg-bw/day) under setting [1] was 0.0892.

On to `CCc1c(C)[nH]c2c1C(=O)C(CN1CCOCC1)CC2` (stereo not given), for which the maximum recommended daily dose (mmol/kg-bw/day) (TherapeuticCategory: antipsychotic) was 0.0136.

Take `CCCCNc1cc(C(=O)O)cc(S(N)(=O)=O)c1Oc1ccccc1`: for the setting “TherapeuticCategory: diuretic”, the maximum recommended daily dose (mmol/kg-bw/day) is 0.000458.

As for `CC(N)Cc1ccc(O)cc1` (stereo not given), where the note is “TherapeuticCategory: adrenergic, mydriatic”, the maximum recommended daily dose (mmol/kg-bw/day) was 0.0265.

Consider `COc1ccc(OC)c(C(O)C(C)N)c1` (stereo not given), for which the maximum recommended daily dose (mmol/kg-bw/day) (TherapeuticCategory: adrenergic) is 0.00158.

Take `CCC1(c2ccccc2)C(=O)NC(=O)NC1=O`: for the setting “TherapeuticCategory: anticonvulsant, sedative, hypnotic”, the maximum recommended daily dose (mmol/kg-bw/day) was 0.0093.

Regarding `COc1cc([C@@H]2c3cc4c(cc3C(O[C@@H]3O[C@@H]5COC(c6cccs6)O[C@H]5[C@H](O)[C@H]3O)C3COC(=O)[C@@H]32)OCO4)cc(OC)c1O` (stereo not given in full), the maximum recommended daily dose (mmol/kg-bw/day) (TherapeuticCategory: antineoplastic) is 0.0107.

On to `C[C@]1(Cn2ccnn2)[C@H](C(=O)O)N2C(=O)C[C@H]2S1(=O)=O`, for which the maximum recommended daily dose (mmol/kg-bw/day) under setting [1] was 0.0833.

Consider `CN=C1CN(O)C(c2ccccc2)=c2cc(Cl)ccc2=N1`, for which the maximum recommended daily dose (mmol/kg-bw/day) (TherapeuticCategory: anxiolytic) is 0.00557.

As for `C[C@@H]1C/C=C/C=C/C=C/C=C/[C@H](O[C@@H]2O[C@H](C)[C@@H](O)[C@H](N)[C@@H]2O)C[C@@H]2O[C@](O)(C[C@@H](O)C[C@H]3O[C@@H]3/C=C/C(=O)O1)C[C@H](O)[C@H]2C(=O)O`, under setting [1], the maximum recommended daily dose (mmol/kg-bw/day) is 0.000413.

For the compound `Cc1cc(=O)n(-c2ccccc2)n1C` (tested in a mixture with another compound), the maximum recommended daily dose (mmol/kg-bw/day) under setting [2] is 0.0626.

For `CCCC(C)C1(CC)C(=O)NC(=O)NC1=O` (stereo not given), the maximum recommended daily dose (mmol/kg-bw/day) under setting [2] is 0.0147.

Consider `C[C@]12CCC(=O)C=C1CC[C@H]1[C@@H]3CC[C@](O)(C(=O)CO)[C@@]3(C)C[C@H](O)[C@@]12F`, for which the maximum recommended daily dose (mmol/kg-bw/day) (TherapeuticCategory: mineralcorticoid) was 4.39e-06.

As for `NC[C@H](O)c1ccc(O)c(O)c1`, the maximum recommended daily dose (mmol/kg-bw/day) (TherapeuticCategory: adrenergic, antihypotensive) is 0.000394.

For `CC/C=C(\C)C1(CC)C(=O)NC(=O)NC1=O`, the maximum recommended daily dose (mmol/kg-bw/day) under setting [2] is 0.0148.

Turning to `CC(C)Cc1ccc(C(C)C(=O)OCc2ccccn2)cc1` (stereo not given), the maximum recommended daily dose (mmol/kg-bw/day) (TherapeuticCategory: anti inflammatory) was 0.135.

As to `NS(=O)(=O)c1cc(C(=O)O)cc(N2CCCC2)c1Oc1ccccc1`, the maximum recommended daily dose (mmol/kg-bw/day) (TherapeuticCategory: diuretic) was 0.000552.

Turning to `NS(=O)(=O)c1cc2c(cc1Cl)NC(C(Cl)Cl)NS2(=O)=O` (stereo not given), the maximum recommended daily dose (mmol/kg-bw/day) (TherapeuticCategory: diuretic, antihypertensive) is 0.000175.

For the compound `OCC1COC(CCI)O1` (stereo not given), the maximum recommended daily dose (mmol/kg-bw/day) (TherapeuticCategory: expectorant) is 0.0155.

As for `CC(C)(C)c1cc(O)ccc1O`, the maximum recommended daily dose (mmol/kg-bw/day) (TherapeuticCategory: antioxidant) is 0.0012.

For the origin of these results see PubChem BioAssay AID1195 (EPA DSSTox, 2008).
